Results published in patent US7618990B2, “Oxazolidone derivatives as PR modulators” (Wyeth, priority 2006, dated 2009).

System: not given
Experiment: not given
Details: not given

SMILES	melting point
C[C@@H]1COC(=O)N1c1nc(-c2ccc(Br)cc2)cs1 [Example 1, (4R)-3-[4-(4-Bromophenyl)-1,3-thiazol-2-yl]-4-methyl-1,3-oxazolidin-2-one]	197 to 199 °C
C[C@@H]1COC(=O)N1c1nc(-c2ccc(C#N)cc2)cs1 [Example 2, 4-{2-[(4R)-4-Methyl-2-oxo-1,3-oxazolidin-3-yl]-1,3-thiazol-4-yl}benzonitrile]	227 to 228 °C
C[C@H]1COC(=O)N1c1nc(-c2ccc(Br)cc2)cs1 [Example 3, (4S)-3-[4-(4-Bromophenyl)-1,3-thiazol-2-yl]-4-methyl-1,3-oxazolidin-2-one]	196 to 198 °C
C[C@H]1COC(=O)N1c1nc(-c2ccc(C#N)cc2)cs1 [Example 4, 4-{2-[(4S)-4-Methyl-2-oxo-1,3-oxazolidin-3-yl]-1,3-thiazol-4-yl}benzonitrile]	205 to 207 °C
CC1(C)COC(=O)N1c1nc(-c2ccc(Br)cc2)cs1 [Example 5, 3-[4-(4-Bromophenyl)-1,3-thiazol-2-yl]-4,4-dimethyl-1,3-oxazolidin-2-one]	165 to 167 °C
CC[C@H]1COC(=O)N1c1nc(-c2ccc(Br)cc2)cs1 [Example 7, (4S)-3-[4-(4-Bromophenyl)-1,3-thiazol-2-yl]-4-ethyl-1,3-oxazolidin-2-one]	138 to 140 °C
CC[C@H]1COC(=O)N1c1nc(-c2ccc(C#N)cc2)cs1 [Example 8, 4-{2-[(4S)-4-Ethyl-2-oxo-1,3-oxazolidin-3-yl]-1,3-thiazol-4-yl}benzonitrile]	173 to 175 °C
CC[C@@H]1COC(=O)N1c1nc(-c2ccc(Br)cc2)cs1 [Example 9, (4R)-3-[4-(4-Bromophenyl)-1,3-thiazol-2-yl]-4-ethyl-1,3-oxazolidin-2-one]	134 to 135 °C
CC[C@@H]1COC(=O)N1c1nc(-c2ccc(C#N)cc2)cs1 [Example 10, 4-{2-[(4R)-4-Ethyl-2-oxo-1,3-oxazolidin-3-yl]-1,3-thiazol-4-yl}benzonitrile]	153 to 157 °C
CCC[C@H]1COC(=O)N1c1nc(-c2ccc(C#N)cc2)cs1 [Example 23, 4-{2-[(4S)-2-oxo-4-propyl-1,3-oxazolidin-3-yl]-1,3-thiazol-4-yl}benzonitrile]	132 to 135 °C
O=C1OCC2(CCCC2)N1c1nc(-c2ccc(Br)cc2)cs1 [Example 34, 1-[4-(4-Bromophenyl)-1,3-thiazol-2-yl]-3-oxa-1-azaspiro[4.4]nonan-2-one]	138 to 139 °C
O=C1OC[C@@H](c2ccccc2)N1c1nc(-c2ccc(Br)cc2)cs1 [Example 35, (4R)-3-[4-(4-Bromophenyl)-1,3-thiazol-2-yl]-4-phenyl-1,3-oxazolidin-2-one]	218 to 220 °C

System: alkaline phosphatase activity in T47D cells
Experiment: Effects of progestins and antiprogestins on alkaline phosphatase activity in T47D cells (antagonist mode)
Assay type: cell-based
Details: Homo sapiens, in the presence of 1 nM progesterone, 24 h, read-out: T47D Alkaline Phosphatase Activity IC50 (nM) or % inhibition

SMILES	IC50
C[C@@H]1COC(=O)N1c1nc(-c2ccc(Br)cc2)cs1 [Example 1, (4R)-3-[4-(4-Bromophenyl)-1,3-thiazol-2-yl]-4-methyl-1,3-oxazolidin-2-one]	22.1 nM
C[C@@H]1COC(=O)N1c1nc(-c2ccc(C#N)cc2)cs1 [Example 2, 4-{2-[(4R)-4-Methyl-2-oxo-1,3-oxazolidin-3-yl]-1,3-thiazol-4-yl}benzonitrile]	14.6 nM
C[C@H]1COC(=O)N1c1nc(-c2ccc(Br)cc2)cs1 [Example 3, (4S)-3-[4-(4-Bromophenyl)-1,3-thiazol-2-yl]-4-methyl-1,3-oxazolidin-2-one]	24.6 nM
C[C@H]1COC(=O)N1c1nc(-c2ccc(C#N)cc2)cs1 [Example 4, 4-{2-[(4S)-4-Methyl-2-oxo-1,3-oxazolidin-3-yl]-1,3-thiazol-4-yl}benzonitrile]	15.8 nM
CC1(C)COC(=O)N1c1nc(-c2ccc(Br)cc2)cs1 [Example 5, 3-[4-(4-Bromophenyl)-1,3-thiazol-2-yl]-4,4-dimethyl-1,3-oxazolidin-2-one]	6.4 nM
CC[C@H]1COC(=O)N1c1nc(-c2ccc(Br)cc2)cs1 [Example 7, (4S)-3-[4-(4-Bromophenyl)-1,3-thiazol-2-yl]-4-ethyl-1,3-oxazolidin-2-one]	23 nM
CC[C@H]1COC(=O)N1c1nc(-c2ccc(C#N)cc2)cs1 [Example 8, 4-{2-[(4S)-4-Ethyl-2-oxo-1,3-oxazolidin-3-yl]-1,3-thiazol-4-yl}benzonitrile]	14.6 nM
CC[C@@H]1COC(=O)N1c1nc(-c2ccc(Br)cc2)cs1 [Example 9, (4R)-3-[4-(4-Bromophenyl)-1,3-thiazol-2-yl]-4-ethyl-1,3-oxazolidin-2-one]	32.9 nM
CC[C@@H]1COC(=O)N1c1nc(-c2ccc(C#N)cc2)cs1 [Example 10, 4-{2-[(4R)-4-Ethyl-2-oxo-1,3-oxazolidin-3-yl]-1,3-thiazol-4-yl}benzonitrile]	12.8 nM
CCC[C@H]1COC(=O)N1c1nc(-c2ccc(C#N)cc2)cs1 [Example 23, 4-{2-[(4S)-2-oxo-4-propyl-1,3-oxazolidin-3-yl]-1,3-thiazol-4-yl}benzonitrile]	28.1 nM
O=C1OCC2(CCCC2)N1c1nc(-c2ccc(Br)cc2)cs1 [Example 34, 1-[4-(4-Bromophenyl)-1,3-thiazol-2-yl]-3-oxa-1-azaspiro[4.4]nonan-2-one]	95.3 nM
O=C1OC[C@@H](c2ccccc2)N1c1nc(-c2ccc(Br)cc2)cs1 [Example 35, (4R)-3-[4-(4-Bromophenyl)-1,3-thiazol-2-yl]-4-phenyl-1,3-oxazolidin-2-one]	204 nM

Target: T1, progesterone receptor (PR) (Homo sapiens, UniProt P06401)
T1 construct: in live, intact (whole) cells using the human breast carcinoma T47D cell line; endogenous in cells; host or cells: T47D human breast carcinoma cells
T1 sequence (P06401 1-933): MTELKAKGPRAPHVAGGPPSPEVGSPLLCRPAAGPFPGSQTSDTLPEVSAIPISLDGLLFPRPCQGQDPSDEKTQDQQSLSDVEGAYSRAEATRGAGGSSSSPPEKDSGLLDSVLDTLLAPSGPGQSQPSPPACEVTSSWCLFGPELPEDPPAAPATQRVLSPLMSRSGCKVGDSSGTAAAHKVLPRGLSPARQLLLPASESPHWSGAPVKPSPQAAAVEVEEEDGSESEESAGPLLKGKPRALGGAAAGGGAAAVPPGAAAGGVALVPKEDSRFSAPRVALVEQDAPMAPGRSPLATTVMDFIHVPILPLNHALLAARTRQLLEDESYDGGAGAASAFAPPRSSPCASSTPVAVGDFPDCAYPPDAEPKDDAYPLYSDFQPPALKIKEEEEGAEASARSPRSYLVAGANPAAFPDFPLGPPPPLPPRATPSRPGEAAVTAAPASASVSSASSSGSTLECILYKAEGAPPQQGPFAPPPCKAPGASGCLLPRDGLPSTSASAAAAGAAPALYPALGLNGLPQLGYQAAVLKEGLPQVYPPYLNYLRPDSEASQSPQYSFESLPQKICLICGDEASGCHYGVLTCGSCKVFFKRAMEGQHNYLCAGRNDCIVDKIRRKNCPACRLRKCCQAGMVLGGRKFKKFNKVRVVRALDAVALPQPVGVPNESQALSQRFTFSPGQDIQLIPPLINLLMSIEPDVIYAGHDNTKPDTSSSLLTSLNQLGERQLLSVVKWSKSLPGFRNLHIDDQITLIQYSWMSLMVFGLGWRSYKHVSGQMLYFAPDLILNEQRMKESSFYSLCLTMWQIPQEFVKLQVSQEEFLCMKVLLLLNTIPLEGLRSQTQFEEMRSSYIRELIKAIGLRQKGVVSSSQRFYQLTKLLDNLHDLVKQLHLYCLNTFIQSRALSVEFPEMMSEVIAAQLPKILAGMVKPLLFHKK
Experiment: Progesterone receptor whole cell competition binding assay using T47D cells
Details: intact T47D cells, 3 nM 3H-progesterone, 3 h at 37° C.
Method: (2) Progesterone Receptor Whole Cell Competition Binding Assay Using T47D Cells
PURPOSE: To evaluate the progesterone receptor (PR) binding activity of progestins or antiprogestins in live, intact (whole) cells using the human breast carcinoma T47D cell line and ^3H-progesterone as the labeled ligand.
Culture Medium: • 5% RC: phenol red free DMEM:F12 (1:1) (GIBCO, BRL) supplemented with 5% (v/v) charcoal stripped fetal bovine serum (not heat-inactivated), 100 U/mL penicillin, 100 μg/mL streptomycin, and 2 mM the GlutaMax™ reagent (GIBCO, BRL). • 10% RC: Same as above supplemented with 10% (v/v) FBS. • ^3H-Progesterone: Perkin Elmer Life Science, cat# NET-381 (typically around 102 Ci/mmol)
T47D cells were maintained in 10% RC media at 37° C. in a 5% CO2/humidified atmosphere and were split twice weekly for proper response. Cells were plated in 10% RC the day before binding assay at 50,000 cells per well in the white, clear bottom plates purchased through VWR or Perkin Elmer.
Cells plated the day prior to the assay in white clear bottom plates were used. A master compound plate was set up containing control and test compounds at 20× final desired concentration for the competition binding. A typical dose range of 20× concentrations were (in nM); 200,000; 20,000; 6000; 2000; 600; 200; 20; and 2. Final concentrations were (in nM); 10,000; 1000; 300; 100; 30; 10; 1; 0.1. Control compounds were typically run 10-fold lower than this and include a 0, or vehicle, control well. A stock of 60 nM ^3H-progesterone (20×) were also prepared at a volume needed of 10 μL per well.
Media on cells were replaced with 180 μL of 5% RC. Ten microliters (10 μL) of 60 nM ^3H-progesterone (for final concentration of 3 nM) was added immediately, followed by 10 μL of 20× test or control compounds. Compounds were incubated for 3 h at 37° C. (A time course study found no difference between 2 and 4 h incubation.)
Following incubation, media was carefully removed and cells were washed 3× with 200 μL 5% RC each wash. Fifty microliters of liquid scintillation cocktail was added and the plates were shaken vigorously for a minimum of 15 min. Plates were read on the Wallac Microbeta® 1450 plate reader.
Square root-transformed data were used for analysis of variance and calculation of IC50. SAS software (SAS Institute, Inc.) was used for all the statistical analysis.
Progesterone was used as a reference progestin and RU486 as a reference antiprogestin.

SMILES	Ki
C[C@@H]1COC(=O)N1c1nc(-c2ccc(Br)cc2)cs1 [Example 1, (4R)-3-[4-(4-Bromophenyl)-1,3-thiazol-2-yl]-4-methyl-1,3-oxazolidin-2-one]	87.6 nM
C[C@@H]1COC(=O)N1c1nc(-c2ccc(C#N)cc2)cs1 [Example 2, 4-{2-[(4R)-4-Methyl-2-oxo-1,3-oxazolidin-3-yl]-1,3-thiazol-4-yl}benzonitrile]	43.4 nM
C[C@H]1COC(=O)N1c1nc(-c2ccc(Br)cc2)cs1 [Example 3, (4S)-3-[4-(4-Bromophenyl)-1,3-thiazol-2-yl]-4-methyl-1,3-oxazolidin-2-one]	55.3 nM
C[C@H]1COC(=O)N1c1nc(-c2ccc(C#N)cc2)cs1 [Example 4, 4-{2-[(4S)-4-Methyl-2-oxo-1,3-oxazolidin-3-yl]-1,3-thiazol-4-yl}benzonitrile]	62.8 nM
CC1(C)COC(=O)N1c1nc(-c2ccc(Br)cc2)cs1 [Example 5, 3-[4-(4-Bromophenyl)-1,3-thiazol-2-yl]-4,4-dimethyl-1,3-oxazolidin-2-one]	38.2 nM
CC[C@H]1COC(=O)N1c1nc(-c2ccc(Br)cc2)cs1 [Example 7, (4S)-3-[4-(4-Bromophenyl)-1,3-thiazol-2-yl]-4-ethyl-1,3-oxazolidin-2-one]	75.3 nM
CC[C@H]1COC(=O)N1c1nc(-c2ccc(C#N)cc2)cs1 [Example 8, 4-{2-[(4S)-4-Ethyl-2-oxo-1,3-oxazolidin-3-yl]-1,3-thiazol-4-yl}benzonitrile]	52.6 nM
CC[C@@H]1COC(=O)N1c1nc(-c2ccc(Br)cc2)cs1 [Example 9, (4R)-3-[4-(4-Bromophenyl)-1,3-thiazol-2-yl]-4-ethyl-1,3-oxazolidin-2-one]	62.1 nM
CC[C@@H]1COC(=O)N1c1nc(-c2ccc(C#N)cc2)cs1 [Example 10, 4-{2-[(4R)-4-Ethyl-2-oxo-1,3-oxazolidin-3-yl]-1,3-thiazol-4-yl}benzonitrile]	23.3 nM
CCC[C@H]1COC(=O)N1c1nc(-c2ccc(C#N)cc2)cs1 [Example 23, 4-{2-[(4S)-2-oxo-4-propyl-1,3-oxazolidin-3-yl]-1,3-thiazol-4-yl}benzonitrile]	41.2 nM
O=C1OCC2(CCCC2)N1c1nc(-c2ccc(Br)cc2)cs1 [Example 34, 1-[4-(4-Bromophenyl)-1,3-thiazol-2-yl]-3-oxa-1-azaspiro[4.4]nonan-2-one]	529 nM
O=C1OC[C@@H](c2ccccc2)N1c1nc(-c2ccc(Br)cc2)cs1 [Example 35, (4R)-3-[4-(4-Bromophenyl)-1,3-thiazol-2-yl]-4-phenyl-1,3-oxazolidin-2-one]	713 nM
